Assay [1] has as its system constitutive amiloride-sensitive inward Na^+ current in high-grade glioma (GBM) cells. The experiment in a line: Whole-cell patch clamp, freshly resected and primary cultured high-grade glioma (Grade III/IV, GBM) cells. It counts as cell-based, human. The source says:
(§1) FIGS. 2A-C show representative whole-cell patch clamp recordings.
(§2) FIGS. 4A and B show summary I-V curves of freshly resected normal astrocytes (FIG. 4A) and GBM cells (FIG. 4B). Inward currents (−60 mV) were −7.5±1.2 pA (normal) and −43.8±14.5 pA (GBM). Outward currents (+40 mV) averaged 42.2±2.4 pA and 47.2±12.5 pA for normal and GBMs, respectively. FIGS. 4C and D show summary amiloride-sensitive (difference) currents of freshly resected normal astrocytes (FIG. 4C) and GBM cells (FIG. 4D).
(§3) A constitutive amiloride-sensitive inward Na^+ conductance has been reported in human high-grade glioma cells. […] These inward Na^+ currents were not present in normal astrocytes or in low-grade astrocytomas (e.g., pilocytic astrocytomas). However, the composition of the channels responsible for the inward Na^+ conductance has not been reported. FIGS. 2A-C show representative whole cell patch-clamp measurements on tissue derived from a freshly resected human glioblastoma multiforme (GBM; WHO grade IV), normal astrocytes obtained from patients undergoing surgery for intractable epilepsy, and primary cultures of different grade glial tumors. […] However, there was no significant inward Na^+ current in normal astrocytes and Grades I and II astrocytoma cells (FIG. 2C).
Summary current-voltage (I-V) curves are presented for normal astrocytes and GBM cells in FIG. 4A and FIG. 4B, respectively, while difference I-V curves for normal astrocytes and GBM cells are presented in FIG. 4C and FIG. 4D, respectively. The GBM cells are depolarized by an average of 31 mV compared to the normal astrocytes under these recording conditions. The depolarized zero current membrane potential is due to the presence of an enhanced Na^+ conductance as is shown in the difference I-V curves.
(§4) FIG. 19A show representative whole-cell patch clamp recordings of ZR-75-1 and SKMEL-2 cells in the basal state.

The subject of assay [2] is whole-cell currents of normal human astrocytes. The experiment in a line: Whole-cell patch clamp, normal human astrocytes. It counts as cell-based.
Excerpt: as §1, §2
as §3, with “2C). […]” for “2C).”

In assay [3] the test system is inward Na^+ currents in SK-MG cells. The experiment in a line: Whole-cell patch clamp, SK-MG glioma cells. The assay is classed as cell-based, human. On the procedure:
(§5) FIGS. 7A-7C show representative whole-cell patch clamp recordings.
(§6) The amiloride-sensitive inward Na^+ currents are measured regardless of whether ASIC2 is absent or present (FIGS. 7A-D). Whole-cell patch clamp recordings were obtained from U87-MG, SK-MG, and D54-MG glioma cells in the basal state. […] This inhibition of the inward current occurred regardless of the absence or presence of ASIC2 mRNA (FIG. 7D) (as detected by RT-PCR as described above).
as §4

Assay [4] relates to inward Na^+ currents in U87-MG cells. The experiment in a line: Whole-cell patch clamp, U87-MG glioma cells. It counts as cell-based, human. On the procedure:
as §5, §6, §4

The test system of assay [5] is constitutive inward Na^+ current of ZR-75-1 breast carcinoma cells. Kind of assay: Whole-cell patch clamp, ZR-75-1 breast carcinoma cells. It counts as cell-based.
Excerpt: (§7) FIGS. 5A-5C show representative whole-cell patch clamp recordings.
(§8) FIGS. 19A-19C show representative whole-cell patch clamp recordings.
(§9) A constitutive amiloride-sensitive inward Na^+ conductance was also observed in the breast carcinoma cell line ZR-75-1 and the melanoma cell line SKMEL-2. FIGS. 5A-C show representative whole cell patch-clamp measurements on ZR-75-1 cells and SKMEL-2 cells.
as §4

Assay [6] concerns constitutive inward Na^+ current of SKMEL-2 melanoma cells. Kind of assay: Whole-cell patch clamp, SKMEL-2 melanoma cells. The assay is classed as cell-based.
Excerpt: as §7, §8, §9, §4

The target of assay [7] is T1, combination of ASIC1 and ASIC2 (Homo sapiens, UniProt P78348+Q16515).
T1 construct: expressed in transfected cells; host or cells: Xenopus oocytes (cRNA injection)
T1 sequence (P78348 whole entry, one chain of several): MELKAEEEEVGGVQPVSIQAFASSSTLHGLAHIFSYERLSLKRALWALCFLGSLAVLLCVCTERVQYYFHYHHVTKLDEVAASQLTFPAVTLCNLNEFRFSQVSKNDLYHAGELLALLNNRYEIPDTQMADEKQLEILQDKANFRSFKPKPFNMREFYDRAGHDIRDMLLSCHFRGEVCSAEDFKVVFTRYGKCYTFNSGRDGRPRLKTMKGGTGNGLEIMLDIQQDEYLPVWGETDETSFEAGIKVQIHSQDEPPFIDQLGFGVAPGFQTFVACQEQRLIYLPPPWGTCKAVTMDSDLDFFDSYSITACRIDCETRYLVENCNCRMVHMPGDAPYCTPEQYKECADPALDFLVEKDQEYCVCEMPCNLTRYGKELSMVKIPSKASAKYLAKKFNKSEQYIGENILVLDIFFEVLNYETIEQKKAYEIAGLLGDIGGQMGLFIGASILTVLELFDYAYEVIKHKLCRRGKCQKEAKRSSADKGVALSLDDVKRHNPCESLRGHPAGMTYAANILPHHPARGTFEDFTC
The experiment in a line: Acid-activated currents in voltage-clamped Xenopus oocytes expressing ASIC1 and ASIC2. The assay is classed as cell-based. The following applies: 400 μM amiloride; pHo 4.0; −60 mV.
Excerpt: (§10) FIGS. 8A-C show acid-activated ASIC currents in Xenopus oocytes. ASIC 2 (FIG. 8A), ASIC1 (FIG. 8B) and the combination of ASIC2 and ASIC1 (FIG. 8C) were examined. […] Each oocyte served as its own control.
(§11) Membrane potential was held at −60 mV, and the pHo was step decreased to 4.0 for 10 s, and then returned to 7.4 for 30 s before repeating the sequence.
(§12) Xenopus oocytes were used to express ASIC1 and ASIC2 mRNA individually and in combination. Oocyte preparation, cRNA injection, and two-electrode voltage clamp recordings were performed as described (33,67-69).
as §11

A further assay has as its target T2, ASIC2 (Homo sapiens, UniProt Q16515).
T2 sequence (Q16515 1-512): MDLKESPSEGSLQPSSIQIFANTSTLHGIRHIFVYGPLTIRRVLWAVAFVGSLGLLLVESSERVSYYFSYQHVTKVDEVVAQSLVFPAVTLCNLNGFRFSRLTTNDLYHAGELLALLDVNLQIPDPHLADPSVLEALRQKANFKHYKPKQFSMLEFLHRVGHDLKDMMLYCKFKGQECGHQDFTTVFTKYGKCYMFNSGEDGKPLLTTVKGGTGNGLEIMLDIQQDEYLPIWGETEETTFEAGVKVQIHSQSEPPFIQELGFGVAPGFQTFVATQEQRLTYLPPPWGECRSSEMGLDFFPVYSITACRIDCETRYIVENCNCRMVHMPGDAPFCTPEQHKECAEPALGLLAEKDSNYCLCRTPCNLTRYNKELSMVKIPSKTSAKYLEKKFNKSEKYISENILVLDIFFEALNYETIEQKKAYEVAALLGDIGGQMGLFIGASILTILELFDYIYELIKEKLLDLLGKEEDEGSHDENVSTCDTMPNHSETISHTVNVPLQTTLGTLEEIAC
The experiment in a line: Acid-activated currents in voltage-clamped Xenopus oocytes expressing ASIC2. The assay is classed as cell-based. Set-up: expressed in transfected cells; host or cells: Xenopus oocytes (cRNA injection). Conditions: pHo 4.0, −60 mV.
Excerpt: as §10, §11, §12, §11

A further assay has as its system U87-MG cells. The experiment in a line: Transwell Migration Assay, U87-MG cells. The assay is classed as cell-based, human. Conditions: 3 h, vitronectin.

Entries after “also recorded” stand apart in the source; their conditions may differ.

As to `N=C(N)NC(=O)c1nc(Cl)c(N)nc1N` [amiloride], the “inhibition of inward Na^+ currents” value in assay [1] (100 μM amiloride, Grade III and IV tumor cells, GBM) is recorded as “completely inhibited; also recorded: blocked; also recorded: significantly inhibited”; in assay [3] (100 μM amiloride) it was “inhibited; also recorded: likewise blocked”; in [4] (100 μM amiloride), “inhibited; also recorded: likewise blocked”. For the same compound, the effect on currents entry in assay [2] (100 μM amiloride, normal astrocytes) is recorded as “did not affect”. Moreover, the “inhibition of inward currents” value in assay [5] (100 μM amiloride) and in assay [6] (100 μM amiloride) was “completely inhibited” each time. For the same compound, the “inhibition of acid-activated currents” value (in assay [7]; at ASIC2 (400 μM amiloride)) was “inhibited” throughout.
As to Psalmotoxin 1 [PcTX1], the “block of constitutive inward Na^+ current” value in [1] (10 nM peptide, freshly resected GBM) is listed as “blocked”; in [3] (10 nM peptide) it was “blocked”; in assay [5] (10 nM synthetic PcTX1), “blocked”; in [6] (10 nM synthetic PcTX1), “blocked”. In addition, the “block of inward basally activated currents” value in assay [1] (primary cultured GBM) and in assay [4] was “similarly blocked” throughout. In addition, in [2] (PcTX1 (10 nM, FIG. 18B), normal human astrocytes), the “effect on whole-cell currents” value is “without effect”. The “diminished ability to migrate through the filter” value in the assay with U87-MG cells is greater than 90%. Besides, the “block of acid-induced inward currents” value with ASIC2 (1 nM peptide (FIG. 20)) is “not those inward Na^+ currents mediated by ASIC2; also recorded: not the inward currents mediated by ASIC2”.

The values above are taken from patent publication US20070092444A1, “Inhibition of inward sodium currents in cancer” (priority 2003, published 2007).
